Measurements published in PMC6107127, “Characteristics of the mitochondrial and cellular uptake of MPP^+, as probed by the fluorescent mimic, 4'I-MPP^+” (PLoS ONE, 2018).

Experiments:
MN9D cells [1] = test: Chromatin condensation test for apoptosis (DAPI); format: cell-based, mouse; conditions: 250 μM, 12 h
Protocol: MN9D cells grown in glass-bottomed plates were treated with 250 μM MPP^+ or 4'I- MPP^+ for 12 h and then with 300 nM DAPI in KRB-HEPES for 15 min in the dark at 37 °C [24]. Then cells were rinsed and PBS was added to cover the cell layer. Increase in nuclear DAPI fluorescence (Ex/Em at 358/461 nm) due to chromatin condensation was observed using a Nikon ECLIPSE Ti-S inverted fluorescence microscope. The controls were treated similarly except that MPP^+ or 4'I-MPP^+ was omitted from the initial incubation medium.

MN9D cells [2] = test: Intracellular ROS (DCFH-DA); format: cell-based, mouse; conditions: 100 μM, 1 h at 37 °C
Protocol: Cells grown in 12-well plates were incubated with 10 μM DCFH-DA in KRB-HEPES for 1 h. […] After the incubations, cells were washed, harvested, solubilized with 0.1 M Tris buffer (pH 7.5) containing 1% Triton X-100, and cell debris were removed by centrifugation at 13,200 x g for 8 min at 4 °C. The content of ROS-oxidized DCFH product, 2',7'-dichlorofluorescein (DCF) in the supernatants were quantified by fluorescence (Ex/Em 488/524 nm). The data were normalized to the protein contents of individual samples. ROS productions in DCFH-DA (50 μM) loaded 250 μM 4'I-MPP^+ treated (4 h) live MN9D cells were visualized by confocal fluorescence microscopy at Ex/Em 488/524 nm using a Leica TCS SP5II microscope.

HepG2 cells [3] = test: Cellular uptake of MPP+ and 4'I-MPP+ (HPLC-UV / fluorescence); format: cell-based, human; conditions: 100 μM toxin, 40 min
Protocol: (§1) Cells were seeded into 12-well plates at 0.25 x 10^6 cells/well and grown 2–3 days to about 70–80% confluency. The media was removed and a solution containing 100 μM MPP^+ or 4'I-MPP^+ in warm KRB-HEPES (or without Ca^2+ and with 1.4 mM EGTA) was added to each well and incubated at 37 °C for the desired period of time (see Figure legends for further details). After the incubations, the media were removed and cells were washed with ice-cold KRB-HEPES. Washed cells were suspended in 1.0 mL of ice-cold KRB-HEPES and 50 μL aliquots were withdrawn for protein determination. The remaining cell suspensions were centrifuged at 5000 x g at 4 °C for 5 min and the cell pellets were treated with 75 μL of 0.1 M HClO4. The coagulated proteins were pelleted by centrifugation at 13,200 x g at 4 °C for 8 min and the MPP^+ or 4'I-MPP^+ contents of the supernatants were determined by C18-reversed-phase HPLC-UV (HPLC-UV) as previously described using standard curves constructed from authentic standards. The standard curves for HPLC-UV quantifications were constructed using authentic samples of MPP^+ and 4'I-MPP^+ under the same HPLC-UV separation conditions (S1 Fig).
(§2) To quantify 4'I-MPP^+ uptake by fluorescence, MN9D or HepG2 cells grown in glass bottomed plates, washed, and reconstituted with KRB-HEPES (1.0 mL), pH 7.4, and mounted on the stage of a Nikon ECLIPSE Ti-S inverted fluorescence microscope. […]

MN9D cells [4] = test: as above; format: cell-based, mouse; conditions: 100 μM toxin, 60 min, 37 °C, KRB-HEPES
Protocol: as §1, §2

[5] = Relative HPLC elution times and hydrophobicities; format: physicochemical
HepG2 cells [6] = test: Intracellular ATP levels; format: cell-based, human; conditions: 100 μM, 6 h at 37 °C
Protocol: Cells grown in 12-well plates were treated with 100 μM MPP^+ or 4'I-MPP^+ in KRB-HEPES for 6 h at 37 °C. After the treatments, cells were suspended in 1 mL of ice-cold KRB-HEPES and 50 μL samples were withdrawn for protein quantification. The remaining cell suspensions were centrifuged for 3 min at 3,500 x g at 4 °C and the cell pellets were treated with 1 mL of lysis buffer (0.1 M Tris, 1% Triton X-100, pH 7.5) for 2 min and centrifuged at 3,500 x g for 3 min to remove the cell debris. The ATP contents of the supernatants were measured using a fluorometric ATP assay kit (BioVision, Milpitas CA, USA) following the manufacture’s guidelines. All ATP levels were normalized to the protein content of each sample.

[7] = system: isolated MN9D cell mitochondria; test: Uptake into isolated MN9D cell mitochondria; set-up: species or system mouse; conditions: 400 μM, 45 min at 37 °C
Protocol: Intact mitochondria were isolated from MN9D cells according to the published procedure of Frezza et al.. The isolated intact mitochondrial preparations were suspended in KCl buffer and aliquots (5 μL) were withdrawn for protein determination. Desired amounts of mitochondrial suspensions were incubated with 400 μM MPP^+ or 4'I-MPP^+ in KCl buffer for 45 min at 37 °C. After the incubation, incubates were centrifuged at 7,000 x g at 4 °C for 10 min and the mitochondrial pellets were treated with 75 μL of 0.1 M HClO4.

MN9D cells [8] = test: MTT cell viability assay; format: cell-based; conditions: Mus musculus, 16 h incubation
Protocol: Cell viability was determined by the MTT [3-(4,5-dimethylthiazol-2-yl)-2,5-diphenyltetrazolium bromide)] assay. Briefly, cells were seeded on 96-well plates and allowed to grow to about 70–80% confluence. Prior to the experiment, culture media was replaced with KRB-HCO3^- containing desired concentrations of MPP^+ or 4'I-MPP^+ and incubated for 16 h at 37 °C. After the incubation, 10 μL of 5 mg/mL MTT solution was added to each well and incubated for 2 h at 37 °C. The resulting formazan was solubilized by the addition of 210 μL detergent solution [50% DMF/H2O (v/v), 20% SDS (w/v)] followed by incubation at 37 °C for 12 h. The cell viabilities were determined by quantifying solubilized formazan by measuring the difference in the absorbance at 570 nm and 650 nm. Results were expressed as % viability of MPP^+ or 4'I-MPP^+ treated cells with respect to control cells, which were treated under the same conditions except in the absence of the MPP^+ or 4'I-MPP^+.

C[n+]1ccc(-c2ccc(I)cc2)cc1 [4'I-MPP^+, 1-methyl-4-(4'-iodophenyl)pyridinium]
apoptotic cell death (chromatin condensation) (MN9D cells [1]): cause apoptotic MN9D cell death
effect on ROS production (MN9D cells [2]): increase ROS production
cellular uptake in 40 min (HepG2 cells [3]): 1.4 nmoles/mg of protein
cellular uptake in 1 h (MN9D cells [4]): 1.2 nmoles/mg of protein
relative elution time (hydrophobicity) ([5]; Buffer:CH3CN 70:30): 11.76
relative elution time (hydrophobicity) ([5]; Buffer:CH3CN:MeOH 60:30:10): 8.88
relative elution time (hydrophobicity) ([5]; Buffer:CH3CN:MeOH 65:25:10): 12.56
effect on intracellular ATP levels (HepG2 cells [6]): deplete intracellular ATP levels
rate of uptake into isolated mitochondria [7]: faster than that of MPP^+
IC50 (MN9D cells [8]): ~40 µM
